This is an account of results in patent US10730884B2, “Substituted indole compound derivatives as dengue viral replication inhibitors” (Janssen Pharmaceuticals, Inc., priority 2016, dated 2020).

Structures are written as SMILES. Like-named read-outs stand apart in the source and are kept apart here.

One series deals with DENV-2 16681 strain. Nature of the series: DENV-2 antiviral assay (eGFP-labeled virus, Vero cells). The series is classed as cell-based, Dengue virus. Particulars: for EC50: DENV-2 16681 eGFP, Vero cells, MOI 0.5, 3 days; for SI: SI=CC50/EC50, DENV-2 antiviral assay. As to the method:
The antiviral activity of all the compounds of the invention was tested against the DENV-2 16681 strain which was labeled with enhanced green fluorescent protein (eGPF). The culture medium consists of minimal essential medium supplemented with 2% of heat-inactivated fetal calf serum, 0.04% gentamycin (50 mg/mL) and 2 mM of L-glutamine. Vero cells, obtained from ECACC, were suspended in culture medium and 25 μL was added to 384-well plates (2500 cells/well), which already contain the antiviral compounds. Typically, these plates contain a 5-fold serial dilution of 9 dilution steps of the test compound at 200 times the final concentration in 100% DMSO (200 nL). […] Finally, each plate contains wells which are assigned as virus controls (containing cells and virus in the absence of compound), cell controls (containing cells in the absence of virus and compound) and medium controls (containing medium in the absence of cells, virus and compounds). To the wells assigned as medium control, 25 μL of culture medium was added instead of Vero cells. Once the cells were added to the plates, the plates were incubated for 30 minutes at room temperature to allow the cells to distribute evenly within the wells. Next, the plates were incubated in a fully humidified incubator (37° C., 5% CO2) until the next day. Then, DENV-2 strain 16681, labeled with eGFP, was added at a multiplicity of infection (MOI) of 0.5. Therefore, 15 μL of virus suspension was added to all the wells containing test compound and to the wells assigned as virus control. In parallel, 15 μL of culture medium was added to the medium and cell controls. Next, the plates were incubated for 3 days in a fully humidified incubator (37° C., 5% CO2). At the day of the read out, the eGFP fluorescence was measured using an automated fluorescence microscope at 488 nm (blue laser). Using an in-house LIMS system, inhibition dose response curves for each compound were calculated and the half maximal effective concentration (EC50) was determined. Therefore, the percent inhibition (I) for every test concentration is calculated using the following formula: I=100*([…])/(SVC−SCC); ST, SCC and SVC are the amount of eGFP signal in the test compound, cell control and virus control wells, respectively. The EC50 represents the concentration of a compound at which the virus replication is inhibited with 50%, as measured by a 50% reduction of the eGFP fluorescent intensity compared to the virus control. The EC50 is calculated using linear interpolation (Table 1).

The nature of a further series: in vitro. The note with it: African green monkey.
Another series relates to DENV-1 strain TC974#666. Nature of the series: Tetravalent RT-qPCR assay, serotype 1. The series is classed as cell-based, Dengue virus. Particulars: for EC50: RT-qPCR serotype 1 TC974#666, Protocol A, Vero cells, day 3, read-out: EC50; for SI: RT-qPCR serotype 1 TC974#666. The method, then: (§1) The antiviral activity of the compounds of the invention was tested against DENV-1 strain TC974#666 (NCPV), DENV-2 strain 16681, DENV-3 strain H87 (NCPV) and DENV-4 strain H241 (NCPV) in a RT-qPCR assay. Therefore, Vero cells were infected with either DENV-1, or -2, or -3, or -4 in the presence or absence of test compounds. At day 3 post-infection, the cells were lysed and cell lysates were used to prepare cDNA of both a viral target (the 3′UTR of DENV; Table 2) and a cellular reference gene (β-actin, Table 2). Subsequently, a duplex real time PCR was performed on a Lightcycler480 instrument. The generated Cp value is inversely proportional to the amount of RNA expression of these targets. Inhibition of DENV replication by a test compound result in a shift of Cp's for the 3′UTR gene. On the other hand, if a test compound is toxic to the cells, a similar effect on β-actin expression will be observed. The comparative ΔΔCp method is used to calculate EC50, which is based on the relative gene expression of the target gene (3′UTR) normalized with the cellular housekeeping gene (β-actin). In addition, CC50 values are determined based on the Cp values acquired for the housekeeping gene β-actin.
(§2) The culture medium consisted of minimal essential medium supplemented with 2% of heat-inactivated fetal calf serum, 0.04% gentamycin (50 mg/mL) and 2 mM of L-glutamine. Vero cells, obtained from ECACC, were suspended in culture medium and 75 μL/well was added in 96-well plates (10000 cells/well), which already contain the antiviral compounds. […] In addition, each plate contains wells which are assigned as virus controls (containing cells and virus in the absence of compound) and cell controls (containing cells in the absence of virus and compound). Once the cells were added in the plates, the plates were incubated in a fully humidified incubator (37° C., 5% CO2) until the next day. Dengue viruses serotype-1, 2, 3 and 4 were diluted in order to obtain a Cp of ˜22-24 in the assay. Therefore, 25 μL of virus suspension was added to all the wells containing test compound and to the wells assigned as virus control. In parallel, 25 μL of culture medium was added to the cell controls. Next, the plates were incubated for 3 days in a fully humidified incubator (37° C., 5% CO2). After 3 days, the supernatant was removed from the wells and the cells were washed twice with ice-cold PBS (˜100 μL). The cell pellets within the 96-well plates were stored at −80° C. for at least 1 day. Next, RNA was extracted using the Cells-to-CT™ lysis kit, according to the manufacturer's guideline (Life Technologies). The cell lysates can be stored at −80° C. or immediately used in the reverse transcription step.
(§3) In preparation of the reverse transcription step, mix A (table 3A) was prepared and 7.57 μL/well was dispensed in a 96-well plate. After addition of 5 μL of the cell lysates, a five minute denaturation step at 75° C. was performed (table 3B). Afterwards, 7.43 μL of mix B was added (table 3C) and the reverse transcription step was initiated (table 3D) to generate cDNA.
(§4) Finally, a RT-qPCR mix was prepared, mix C (table 4A), and 22.02 μL/well was dispensed in 96-well LightCycler qPCR plates to which 3 μL of cDNA was added and the qPCR was performed according to the conditions in table 4B on a LightCycler 480.
(§5) Using the LightCycler software and an in-house LIMS system, dose response curves for each compound were calculated and the half maximal effective concentration (EC50) and the half maximal cytotoxic concentration (CC50) were determined (Tables 5-8).
Background: Real-time PCR tracks product formation cycle by cycle.

For another series, the system named is DENV-2 strain 16681. Description: Tetravalent RT-qPCR assay, serotype 2. The series is classed as cell-based, Dengue virus. Particulars: for EC50: RT-qPCR serotype 2 16681, Protocol A, Vero cells, day 3; for SI: RT-qPCR serotype 2 16681. The method, then:
as §1, §2, §3, §4, §5

The subject of the next series is DENV-3 strain H87. Description: Tetravalent RT-qPCR assay, serotype 3. The series is classed as cell-based, Dengue virus. The note with it: for EC50: RT-qPCR serotype 3 H87, Protocol A, Vero cells, day 3, read-out: EC50; for SI: RT-qPCR serotype 3 H87. As to the method: as §1, §2, §3, §4, §5
For a further series, the system named is DENV-4 strain H241. Description: Tetravalent RT-qPCR assay, serotype 4. The series is classed as cell-based, Dengue virus. Particulars: for EC50: RT-qPCR serotype 4 H241, Protocol A, Vero cells, day 3; for SI: RT-qPCR serotype 4 H241. As to the method:
as §1, §2, §3, §4, §5

[1] abbreviates: Dengue virus, DENV2, Vero, 72 h.
Where [2] appears, read: Dengue virus, DENV1, Vero, 72 h.
Setting [3] is: Dengue virus, DENV3, Vero, 72 h.
Where [4] appears, read: Dengue virus, DENV4, Vero, 72 h.

What is called EC50 is the concentration giving half of the maximal effect.

As to `COc1cc(NC(C(=O)c2c[nH]c3cc(OC(F)(F)F)c(C)cc23)c2ccc(F)cc2OC)cc(OCCO)c1` (racemic) [Compound 4, 2-(4-fluoro-2-methoxyphenyl)-2-((3-(2-hydroxyethoxy)-5-methoxyphenyl)amino)-1-(5-methyl-6-(trifluoromethoxy)-1H-indol-3-yl)ethanone], in the series with DENV-2 16681 strain (setting [1]), the EC50 was 11 nM. In the series with DENV-2 16681 strain, the SI worked out at 359. In the series “in vitro”, this molecule yielded a CC50 of 3900 nM.

`CCOc1cc2[nH]cc(C(=O)C(Nc3cc(OC)cc(OCCO)c3)c3ccc(F)cc3OC)c2cc1C` (racemic) [Compound 6, 1-(6-ethoxy-5-methyl-1H-indol-3-yl)-2-(4-fluoro-2-methoxyphenyl)-2-((3-(2-hydroxyethoxy)-5-methoxyphenyl)amino)ethanone] registered an EC50 in the series on DENV-2 16681 strain (setting [1]) of 1.8 nM. In addition, the SI in the series on DENV-2 16681 strain is given as 3160. In “in vitro”, this molecule showed a CC50 of 5700 nM.

Take `COc1cc(NC(C(=O)c2c[nH]c3cc(F)ccc23)c2ccc(Cl)cc2OC)cc(OCCOP(=O)(O)O)c1` (racemic) [Compound 13-P, 2-(3-((1-(4-chloro-2-methoxyphenyl)-2-(6-fluoro-1H-indol-3-yl)-2-oxoethyl)amino)-5-methoxyphenoxy)ethyl dihydrogen phosphate]: in the series on DENV-2 16681 strain (setting [1]), the EC50 amounted to 2.1 nM. Also, the SI with DENV-2 16681 strain is given as 5210. Also, in “in vitro”, the CC50 is 11000 nM.

Regarding `COc1cc(NC(C(=O)c2c[nH]c3cc(F)ccc23)c2ccc(Cl)cc2OC)cc(OCCOP(=O)(O)O)c1` (single isomer, unassigned) [13A-P^b], the EC50 in the series with DENV-2 16681 strain stood at 0.48 nM; with DENV-2 16681 strain (listed as 13A-P^c), 0.94 nM; in the series with DENV-1 strain TC974#666 (setting [2]), 4.2 nM; with DENV-1 strain TC974#666 (listed as 13A-P^c), 4.4 nM; with DENV-2 strain 16681, 0.97 nM; in the series with DENV-2 strain 16681 (listed as 13A-P^c), 0.44 nM. The EC50 was 42 nM with DENV-3 strain H87 (setting [3]), 28 nM with DENV-3 strain H87 (listed as 13A-P^c), 250 nM with DENV-4 strain H241 (setting [4]) and 230 nM in the series on DENV-4 strain H241 (listed as 13A-P^c). Further, in the series “in vitro”, the CC50 was 11000 nM.

In the series on DENV-2 16681 strain, `COc1cc(NC(C(=O)c2c[nH]c3cc(OC(F)(F)F)c(C)cc23)c2ccc(F)cc2OC)cc(OCCO)c1` (single isomer, unassigned) [Compound 4A] yielded an EC50 of 630 nM and an SI of 5.4. Moreover, in the series “in vitro”, the CC50 is 3400 nM.

Turning to `COc1cc(NC(C(=O)c2c[nH]c3cc4c(cc23)CCO4)c2ccc(F)cc2OC)cc(OCCO)c1` (single isomer, unassigned) [Compound 7A], the EC50 with DENV-2 16681 strain worked out at 1 nM; in the series with DENV-1 strain TC974#666 (setting [2]), 7.8 nM; with DENV-2 strain 16681 (setting [1]), 1.6 nM; with DENV-3 strain H87 (setting [3]), 63 nM; with DENV-4 strain H241 (setting [4]), 380 nM. The SI with DENV-2 16681 strain turned out to be 13700; in the series with DENV-1 strain TC974#666, 713; in the series with DENV-2 strain 16681 it was 5930; with DENV-3 strain H87, 76; in the series on DENV-4 strain H241, 12. For the same molecule, in the series “in vitro”, the CC50 was found to be 10000 nM.

Turning to `COc1cc(NC(C(=O)c2c[nH]c3c4c(ccc23)OCC4)c2ccc(F)cc2OC)cc(OCCO)c1` (single isomer, unassigned) [Compound 8A], the EC50 in the series with DENV-2 16681 strain worked out at 4.3 nM; in the series with DENV-1 strain TC974#666 (setting [2]), 20 nM; in the series on DENV-2 strain 16681 (setting [1]) it was 8.1 nM; with DENV-3 strain H87 (setting [3]), 150 nM; in the series with DENV-4 strain H241 (setting [4]), 710 nM. For the same molecule, the SI with DENV-2 16681 strain came to 4240; with DENV-1 strain TC974#666, 560; with DENV-2 strain 16681, 1530; in the series with DENV-3 strain H87 it was 64; with DENV-4 strain H241 it was 20. Also, the CC50 in “in vitro” came out at 12000 nM.

In the series on DENV-2 16681 strain, `COc1cc(NC(C(=O)c2c[nH]c3cc(F)c(C)cc23)c2ccc(Cl)cc2OC)cc(OCCO)c1` (single isomer, unassigned) [Compound 9A] showed an EC50 of 52 nM and an SI of 70. In addition, the CC50 in “in vitro” stood at 3700 nM.

With `COc1cc(NC(C(=O)c2c[nH]c3cc4c(cc23)CCO4)c2ccc(Cl)cc2OC)cc(OCCO)c1` (single isomer, unassigned) [Compound 10A], in the series on DENV-2 16681 strain, a half-maximal response (EC50) required 110 nM and the SI is reported as 44. In addition, the CC50 in “in vitro” amounted to 4900 nM.

With `COc1cc(NC(C(=O)c2c[nH]c3c4c(ccc23)OCC4)c2ccc(Cl)cc2OC)cc(OCCO)c1` (single isomer, unassigned) [Compound 11A], the EC50 with DENV-2 16681 strain turned out to be 0.88 nM; with DENV-1 strain TC974#666 (setting [2]), 8.5 nM; in the series on DENV-2 strain 16681 (setting [1]) it was 1.9 nM; with DENV-3 strain H87 (setting [3]), 28 nM; with DENV-4 strain H241 (setting [4]), 270 nM. For the same molecule, the SI with DENV-2 16681 strain is recorded as 7460; in the series on DENV-1 strain TC974#666 it was 1350; in the series with DENV-2 strain 16681 it was 2490; in the series with DENV-3 strain H87, 359; in the series with DENV-4 strain H241, above 9.1. The CC50 in “in vitro” is 6000 nM.

In the series with DENV-2 16681 strain, `COc1cc(NC(C(=O)c2c[nH]c3cc(OC)c(C)c(F)c23)c2ccc(Cl)cc2OC)cc(OCCO)c1` (single isomer, unassigned) [Compound 12A] gave an EC50 of 6 nM and an SI of 1200. In the series “in vitro”, this molecule gave a CC50 of 5600 nM.
